Reference: ChEMBL document CHEMBL1201862, “PubChem BioAssay data set” (2004)
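Where inhibition never reached the appropriate level, the endpoint shown equals the highest concentration tested. Otherwise, values were interpolated linearly from a five-concentration, 48-hour dose response in 96-well plates. Here, GI50 denotes the concentration required for 50% inhibition of growth.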 Calls of active or inactive are those of the source. Rule as the data show it: active = GI50 up to about 1.1 µM and inactive = higher.

Assays:
Experiment in all cases: NCI-60 cell line screen, 48 h
[1] = test system: NCI-H460
[2] = test system: NCI-H23
[3] = test system: RXF 393
[4] = test system: SK-MEL-5
[5] = test system: OVCAR-5
[6] = test system: EKVX
[7] = test system: CAKI-1
[8] = test system: KM12
[9] = test system: ACHN
[10] = test system: HCC 2998
[11] = test system: A549
[12] = test system: NCI-H226
[13] = test system: UACC-62
[14] = test system: 786-0
[15] = test system: COLO 205
[16] = test system: OVCAR-8
[17] = test system: SK-MEL-2
[18] = test system: MDA-MB-231
[19] = test system: PC-3

Structure (SMILES) | GI50 [1] | GI50 [2] | GI50 [3] | GI50 [4] | GI50 [5] | GI50 [6] | GI50 [7] | GI50 [8] | GI50 [9] | GI50 [10] | GI50 [11] | GI50 [12] | GI50 [13] | GI50 [14] | GI50 [15] | GI50 [16] | GI50 [17] | GI50 [18] | GI50 [19]
Cc1ccc(/C=C/C(=O)c2sc(-c3cccnc3)nc2C)cc1 | > 100 µM (inactive) | > 100 µM (inactive) | 98.9 µM (inactive) | > 100 µM (inactive) | > 100 µM (inactive) | > 100 µM (inactive) | > 100 µM (inactive) | > 100 µM (inactive) | > 100 µM (inactive) | > 100 µM (inactive) | > 100 µM (inactive) | > 100 µM (inactive) | > 100 µM (inactive) | > 100 µM (inactive) | > 100 µM (inactive) | > 100 µM (inactive) | > 100 µM (inactive) | – | –
O=[N+]([O-])c1ccc2sc(/C=N/c3ccc(O)cc3)cc2c1 | 46 µM (inactive) | 27.9 µM (inactive) | 21.5 µM (inactive) | 21.8 µM (inactive) | 62.2 µM (inactive) | 48.1 µM (inactive) | 20.6 µM (inactive) | 33.7 µM (inactive) | 32.2 µM (inactive) | 21.8 µM (inactive) | 48 µM (inactive) | – | 23.1 µM (inactive) | 19 µM (inactive) | 38 µM (inactive) | 32.2 µM (inactive) | 22 µM (inactive) | 17.8 µM (inactive) | 29.6 µM (inactive)
N=C(NNS(=O)(=O)c1ccccc1)Oc1ccc(Br)cc1Br | > 100 µM (inactive) | 84.7 µM (inactive) | > 100 µM (inactive) | > 100 µM (inactive) | > 100 µM (inactive) | > 100 µM (inactive) | > 100 µM (inactive) | > 100 µM (inactive) | > 100 µM (inactive) | > 100 µM (inactive) | > 100 µM (inactive) | 73.5 µM (inactive) | > 100 µM (inactive) | 41.3 µM (inactive) | > 100 µM (inactive) | > 100 µM (inactive) | > 100 µM (inactive) | – | –
COc1cccc(-c2c(-c3ccccc3)[nH]c(C)c2C(=O)ONC(=O)c2ccccc2)c1 | 3.19 µM (inactive) | 11.6 µM (inactive) | 4.35 µM (inactive) | 9.93 µM (inactive) | 9.06 µM (inactive) | 6.78 µM (inactive) | 3.18 µM (inactive) | 13.7 µM (inactive) | 2.99 µM (inactive) | 14.4 µM (inactive) | 2.29 µM (inactive) | 10.4 µM (inactive) | 13.8 µM (inactive) | 4.44 µM (inactive) | 13.7 µM (inactive) | 5.18 µM (inactive) | 10.4 µM (inactive) | 9.55 µM (inactive) | 11.6 µM (inactive)
CC1CC/C(=C\c2ccc(F)cc2)C2=C1C(c1ccc(F)cc1)n1c(s/c(=C/c3cccc(Br)c3)c1=O)=N2 (configuration not stated) | – | – | > 100 µM (inactive) | > 100 µM (inactive) | > 100 µM (inactive) | > 100 µM (inactive) | > 100 µM (inactive) | > 100 µM (inactive) | > 100 µM (inactive) | – | > 100 µM (inactive) | – | > 100 µM (inactive) | > 100 µM (inactive) | – | > 100 µM (inactive) | > 100 µM (inactive) | > 100 µM (inactive) | > 100 µM (inactive)
Cc1ccc(S(=O)(=O)CC2(Br)CCc3ccccc3C2=O)cc1 (configuration not stated) | > 100 µM (inactive) | 33.6 µM (inactive) | 18.1 µM (inactive) | 17.6 µM (inactive) | 51.1 µM (inactive) | 43.1 µM (inactive) | 24.5 µM (inactive) | 41 µM (inactive) | 19.8 µM (inactive) | – | 45.3 µM (inactive) | 41.8 µM (inactive) | 23 µM (inactive) | 42.9 µM (inactive) | 18.1 µM (inactive) | 27.4 µM (inactive) | 21.4 µM (inactive) | 28 µM (inactive) | 42.4 µM (inactive)
COc1cc2c(cc1OC)C(Cc1ccc(Oc3cc(CC4c5cc(OC)c(OC)cc5CCN4C)ccc3O)cc1)N(C)CC2 (configuration not stated) | 27.9 µM (inactive) | 51.2 µM (inactive) | 11.9 µM (inactive) | 15.7 µM (inactive) | > 100 µM (inactive) | 88.5 µM (inactive) | 21.7 µM (inactive) | 21.9 µM (inactive) | 16.5 µM (inactive) | 14.3 µM (inactive) | 35.2 µM (inactive) | 22.8 µM (inactive) | 17.4 µM (inactive) | 13.5 µM (inactive) | 11.3 µM (inactive) | 87.3 µM (inactive) | 16.1 µM (inactive) | – | –
CCN(CCCl)CCCCCNc1c2ccccc2nc2ccc(OC)cc12 | 0.07 µM (active) | 0.356 µM (active) | 1.07 µM (active) | 1.1 µM (active) | 1.55 µM (inactive) | 3.79 µM (inactive) | 2.84 µM (inactive) | 0.454 µM (active) | 0.47 µM (active) | 1.04 µM (active) | 0.373 µM (active) | 0.321 µM (active) | 0.402 µM (active) | 0.345 µM (active) | 1.1 µM (active) | 0.533 µM (active) | 1.09 µM (active) | – | –
